Assay results taken from ChEMBL document CHEMBL5260842 (J Med Chem, 2019).

Legend:
[1] = target: T1, von Hippel-Lindau disease tumor suppressor/Androgen receptor (Homo sapiens, UniProt P10275+P40337); experiment: Protac activity at VHL/AR in AR-positive human LNCaP cells assessed as induction of androgen receptor degradation at 0.01 uM incubated for 6 hrs by Western blot analysis (reference value: 0%); assay type: cell-based
[2] = target: T1, von Hippel-Lindau disease tumor suppressor/Androgen receptor; experiment: Protac activity at VHL/AR in AR-positive human LNCaP cells assessed as induction of androgen receptor degradation at 0.1 uM incubated for 6 hrs by Western blot analysis (reference value: 0%); assay type: cell-based
LNCaP = experiment: Cytotoxicity against AR-positive human LNCaP cells assessed as inhibition of cell growth incubated for 7 days in presence of AR agonist, R1881 in charcoal stripped medium by WST-8 assay; assay type: functional, cell-based; conditions: 168 h
VCaP = experiment: Cytotoxicity against AR-positive human VCaP cells assessed as inhibition of cell growth incubated for 7 days in presence of AR agonist, R1881 in charcoal stripped medium by WST-8 assay; assay type: functional, cell-based; conditions: 168 h
CWR22R = experiment: Cytotoxicity against AR-positive human 22Rv1 cells assessed as inhibition of cell growth incubated for 7 days in regular culture medium by WST-8 assay; assay type: functional, cell-based; conditions: 22Rv1, 168 h

T1 sequence (P10275 whole entry, looked up): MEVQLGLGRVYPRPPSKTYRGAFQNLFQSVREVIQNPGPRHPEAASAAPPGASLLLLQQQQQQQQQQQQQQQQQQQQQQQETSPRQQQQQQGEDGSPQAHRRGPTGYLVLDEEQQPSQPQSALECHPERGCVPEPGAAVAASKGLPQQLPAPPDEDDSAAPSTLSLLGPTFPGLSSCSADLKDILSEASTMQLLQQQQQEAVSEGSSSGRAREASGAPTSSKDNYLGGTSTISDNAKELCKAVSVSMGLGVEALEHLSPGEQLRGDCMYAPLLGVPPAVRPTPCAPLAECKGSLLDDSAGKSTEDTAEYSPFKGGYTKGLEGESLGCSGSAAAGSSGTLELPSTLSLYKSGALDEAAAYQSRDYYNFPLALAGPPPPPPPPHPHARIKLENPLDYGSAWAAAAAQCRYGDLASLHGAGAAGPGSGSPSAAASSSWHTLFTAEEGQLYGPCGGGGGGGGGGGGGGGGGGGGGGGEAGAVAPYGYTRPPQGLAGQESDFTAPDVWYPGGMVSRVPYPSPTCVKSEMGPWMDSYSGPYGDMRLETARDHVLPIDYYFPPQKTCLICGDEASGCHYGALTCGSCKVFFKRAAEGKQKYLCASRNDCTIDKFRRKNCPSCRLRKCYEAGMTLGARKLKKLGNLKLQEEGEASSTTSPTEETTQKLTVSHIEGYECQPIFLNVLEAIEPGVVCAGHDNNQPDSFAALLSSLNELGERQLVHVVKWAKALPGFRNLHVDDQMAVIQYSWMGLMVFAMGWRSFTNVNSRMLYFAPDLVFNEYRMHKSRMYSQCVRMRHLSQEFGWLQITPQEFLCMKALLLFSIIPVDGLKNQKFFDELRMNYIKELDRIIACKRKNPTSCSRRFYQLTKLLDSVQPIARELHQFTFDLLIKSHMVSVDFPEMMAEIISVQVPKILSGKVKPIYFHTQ
T1 sequence (P40337 whole entry, looked up): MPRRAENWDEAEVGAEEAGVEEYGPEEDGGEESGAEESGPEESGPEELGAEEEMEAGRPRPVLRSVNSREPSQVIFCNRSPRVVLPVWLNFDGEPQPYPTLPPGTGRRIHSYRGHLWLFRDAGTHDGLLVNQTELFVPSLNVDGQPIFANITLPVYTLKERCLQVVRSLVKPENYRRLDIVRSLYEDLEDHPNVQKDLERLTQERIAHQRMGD

| Activity [1] [%] | Activity [2] [%] | SMILES | also measured |
| --- | --- | --- | --- |
|  | 54 | Cc1ncsc1-c1ccc(CNC(=O)[C@@H]2C[C@@H](O)CN2C(=O)[C@@H](NC(=O)CCCCCCNC(=O)c2ccc(N3C(=S)N(c4ccc(C#N)c(C(F)(F)F)c4)C(=O)C3(C)C)cc2F)C(C)(C)C)cc1 |  |
| 30 | 63 | Cc1ncsc1-c1ccc(CNC(=O)[C@@H]2C[C@@H](O)CN2C(=O)[C@@H](NC(=O)CCCCCCc2ccc(C#Cc3ccc(N4C(=S)N(c5ccc(C#N)c(C(F)(F)F)c5)C(=O)C4(C)C)cc3)cn2)C(C)(C)C)cc1 |  |
|  | < 5 | Cc1ncsc1-c1ccc([C@H](CC(=O)N2CCC(N3CCC(C#Cc4ccc(C(=O)N[C@H]5C(C)(C)[C@H](Oc6ccc(C#N)c(Cl)c6)C5(C)C)cc4)CC3)CC2)NC(=O)[C@@H]2C[C@@H](O)CN2C(=O)[C@H](NC(=O)C2(F)CC2)C(C)(C)C)cc1 |  |
| 28 | 48 | Cc1ncsc1-c1ccc([C@H](C)NC(=O)[C@@H]2C[C@@H](O)CN2C(=O)[C@@H](NC(=O)CCCCN2CCN(c3ccc(C#Cc4ccc(N5C(=S)N(c6ccc(C#N)c(C(F)(F)F)c6)C(=O)C5(C)C)cc4)cn3)CC2)C(C)(C)C)cc1 |  |
| 10 | 48 | Cc1ncsc1-c1ccc(CNC(=O)[C@@H]2C[C@@H](O)CN2C(=O)[C@@H](NC(=O)CCCCCCCCCNC(=O)c2ccc(N3C(=S)N(c4ccc(C#N)c(C(F)(F)F)c4)C(=O)C3(C)C)cc2F)C(C)(C)C)cc1 |  |
| 11 | 50 | Cc1cc([C@H](C(=O)N2C[C@H](O)C[C@H]2C(=O)N[C@@H](CC(=O)NCCCCCCCCCNC(=O)c2ccc(N3C(=S)N(c4ccc(C#N)c(C(F)(F)F)c4)C(=O)C3(C)C)cc2F)c2ccc(-c3sncc3C)cc2)C(C)C)on1 |  |
| 38 | 80 | Cc1cc([C@H](C(=O)N2C[C@H](O)C[C@H]2C(=O)N[C@@H](CC(=O)N2CCC(N3CCC(C#Cc4ccc(N5C(=S)N(c6cnc(C#N)c(C(F)(F)F)c6)C(=O)C56CCC6)cc4)CC3)CC2)c2ccc(-c3scnc3C)cc2)C(C)C)on1 |  |
|  | 11 | Cc1ncsc1-c1ccc(CNC(=O)[C@@H]2C[C@@H](O)CN2C(=O)[C@@H](NC(=O)CCCCCNC(=O)c2ccc(N3C(=S)N(c4ccc(C#N)c(C(F)(F)F)c4)C(=O)C3(C)C)cc2F)C(C)(C)C)cc1 |  |
|  | < 5 | Cc1ncsc1-c1ccc([C@@H](CC(=O)N2CCC(N3CCC(C#Cc4ccc(C(=O)N[C@H]5C(C)(C)[C@H](Oc6ccc(C#N)c(Cl)c6)C5(C)C)cc4)CC3)CC2)NC(=O)[C@@H]2C[C@@H](O)CN2C(=O)[C@@H](NC(=O)C2(F)CC2)C(C)(C)C)cc1 |  |
| 76 | 98 | Cc1cc([C@H](C(=O)N2C[C@H](O)C[C@H]2C(=O)N[C@@H](CC(=O)N2CCC(N3CCC(C#Cc4ccc(C(=O)N[C@H]5C(C)(C)[C@H](Oc6ccc(C#N)c(Cl)c6)C5(C)C)cc4)CC3)CC2)c2ccc(-c3scnc3C)cc2)C(C)C)on1 |  |
| 34 | 51 | Cc1ncsc1-c1ccc([C@H](C)NC(=O)[C@@H]2C[C@@H](O)CN2C(=O)[C@@H](NC(=O)CCN2CCN(c3ccc(C#Cc4ccc(N5C(=S)N(c6ccc(C#N)c(C(F)(F)F)c6)C(=O)C5(C)C)cc4)cn3)CC2)C(C)(C)C)cc1 |  |
|  | 18 | Cc1cc([C@H](C(=O)N2C[C@H](O)C[C@H]2C(=O)N[C@@H](CC(=O)N2CCC(N3CCC(C#Cc4ccc(S(=O)(=O)CC(C)(O)C(=O)Nc5ccc(C#N)c(C(F)(F)F)c5)cc4)CC3)CC2)c2ccc(-c3scnc3C)cc2)C(C)C)on1 (stereo partly drawn) |  |
|  | 26 | Cc1ncsc1-c1ccc(CNC(=O)[C@@H]2C[C@@H](O)CN2C(=O)[C@@H](NC(=O)CCNC(=O)c2ccc(N3C(=S)N(c4ccc(C#N)c(C(F)(F)F)c4)C(=O)C3(C)C)cc2F)C(C)(C)C)cc1 |  |
| 39 | 77 | CC(=O)N[C@H](C(=O)N1C[C@H](O)C[C@H]1C(=O)N[C@@H](CC(=O)N1CCC(N2CCC(C#Cc3ccc(C(=O)N[C@H]4C(C)(C)[C@H](Oc5ccc(C#N)c(Cl)c5)C4(C)C)cc3)CC2)CC1)c1ccc(-c2scnc2C)cc1)C(C)(C)C |  |
| 15 | 66 | Cc1ncsc1-c1ccc(CNC(=O)[C@@H]2C[C@@H](O)CN2C(=O)[C@@H](NC(=O)CCCCCCCCNC(=O)c2ccc(N3C(=S)N(c4ccc(C#N)c(C(F)(F)F)c4)C(=O)C3(C)C)cc2F)C(C)(C)C)cc1 |  |
| 22 | 72 | Cc1cc([C@H](C(=O)N2C[C@H](O)C[C@H]2C(=O)N[C@@H](CC(=O)N2CCN(c3ccc(C#Cc4ccc(N5C(=S)N(c6ccc(C#N)c(C(F)(F)F)c6)C(=O)C5(C)C)cc4)cn3)CC2)c2ccc(-c3scnc3C)cc2)C(C)C)on1 |  |
|  | 15 | Cc1ncsc1-c1ccc(CNC(=O)[C@@H]2C[C@@H](O)CN2C(=O)[C@@H](NC(=O)CCCNC(=O)c2ccc(N3C(=S)N(c4ccc(C#N)c(C(F)(F)F)c4)C(=O)C3(C)C)cc2F)C(C)(C)C)cc1 |  |
|  | 0 | Cc1ncsc1-c1ccc([C@H](C)NC(=O)[C@@H]2C[C@@H](O)CN2C(=O)[C@@H](NC(=O)N2CCN(c3ccc(C#Cc4ccc(N5C(=S)N(c6ccc(C#N)c(C(F)(F)F)c6)C(=O)C5(C)C)cc4)cn3)CC2)C(C)(C)C)cc1 |  |

Continued, compound first:

| SMILES | Activity [1] [%] | Activity [2] [%] | also measured |
| --- | --- | --- | --- |
| Cc1ncsc1-c1ccc([C@H](CC(=O)N2CCC(N3CCC(C#Cc4ccc(C(=O)N[C@H]5C(C)(C)[C@H](Oc6ccc(C#N)c(Cl)c6)C5(C)C)cc4)CC3)CC2)NC(=O)[C@@H]2C[C@@H](O)CN2C(=O)[C@@H](NC(=O)C2(C#N)CC2)C(C)(C)C)cc1 | 76 | 99 |  |
| Cc1ncsc1-c1ccc([C@H](C)NC(=O)[C@@H]2C[C@@H](O)CN2C(=O)[C@@H](NC(=O)CCCN2CCN(c3ccc(C#Cc4ccc(N5C(=S)N(c6ccc(C#N)c(C(F)(F)F)c6)C(=O)C5(C)C)cc4)cn3)CC2)C(C)(C)C)cc1 | 37 | 61 |  |
| Cc1ncsc1-c1ccc(CNC(=O)[C@@H]2C[C@@H](O)CN2C(=O)[C@@H](NC(=O)CCCCCCCCCCCNC(=O)c2ccc(N3C(=S)N(c4ccc(C#N)c(C(F)(F)F)c4)C(=O)C3(C)C)cc2F)C(C)(C)C)cc1 |  | 30 |  |
| Cc1cc([C@H](C(=O)N2C[C@H](O)C[C@H]2C(=O)N[C@@H](CC(=O)N2CCC(N3CCC(C#Cc4ccc(Cc5c(C)nn(-c6ccc(C#N)c(Cl)c6)c5C)cc4)CC3)CC2)c2ccc(-c3scnc3C)cc2)C(C)C)on1 |  | 65 |  |
| Cc1ncsc1-c1ccc(CNC(=O)[C@@H]2C[C@@H](O)CN2C(=O)[C@@H](NC(=O)CCOCCOCCNC(=O)c2ccc(N3C(=S)N(c4ccc(C#N)c(C(F)(F)F)c4)C(=O)C3(C)C)cc2F)C(C)(C)C)cc1 |  | 32 |  |
| Cc1ncsc1-c1ccc(CNC(=O)[C@@H]2C[C@@H](O)CN2C(=O)[C@@H](NC(=O)CCCCCCCCCCNC(=O)c2ccc(N3C(=S)N(c4ccc(C#N)c(C(F)(F)F)c4)C(=O)C3(C)C)cc2F)C(C)(C)C)cc1 | 11 | 48 |  |
| Cc1ncsc1-c1ccc(CNC(=O)[C@@H]2C[C@@H](O)CN2C(=O)[C@@H](NC(=O)CCCCCCCNC(=O)c2ccc(N3C(=S)N(c4ccc(C#N)c(C(F)(F)F)c4)C(=O)C3(C)C)cc2F)C(C)(C)C)cc1 | 8 | 29 |  |
| Cc1ncsc1-c1ccc(CNC(=O)[C@@H]2C[C@@H](O)CN2C(=O)[C@@H](NC(=O)CCCN2CCN(c3ccc(C#Cc4ccc(N5C(=S)N(c6ccc(C#N)c(C(F)(F)F)c6)C(=O)C5(C)C)cc4)cn3)CC2)C(C)(C)C)cc1 |  | 50 |  |
| Cc1ncsc1-c1ccc(CNC(=O)[C@@H]2C[C@@H](O)CN2C(=O)[C@@H](NC(=O)CCCCNC(=O)c2ccc(N3C(=S)N(c4ccc(C#N)c(C(F)(F)F)c4)C(=O)C3(C)C)cc2F)C(C)(C)C)cc1 |  | 16 |  |
| Cc1cc([C@H](C(=O)N2C[C@H](O)C[C@H]2C(=O)N[C@@H](CC(=O)NCCCCCCCCCNC(=O)c2ccc(C(=O)N[C@H]3C(C)(C)[C@H](Oc4ccc(C#N)c(Cl)c4)C3(C)C)cc2)c2ccc(-c3scnc3C)cc2)C(C)C)on1 | 43 | 91 |  |
| Cc1cc([C@H](C(=O)N2C[C@H](O)C[C@H]2C(=O)N[C@@H](CC(=O)N2CCC(N3CCC(C#Cc4ccc(N5C(=S)N(c6ccc(C#N)c(C(F)(F)F)c6)C(=O)C5(C)C)cc4)CC3)CC2)c2ccc(-c3scnc3C)cc2)C(C)C)on1 | 20 | 81 |  |
| CNC(=O)c1ccc(N2C(=S)N(c3ccc(C#N)c(C(F)(F)F)c3)C(=O)C2(C)C)cc1F [ENZALUTAMIDE] |  |  | IC50 (LNCaP): 0.025 µM; IC50 (VCaP): 0.0874 µM |
| Cc1cc([C@H](C(=O)N2C[C@H](O)C[C@H]2C(=O)N[C@@H](CC(=O)NCCCN2CCN(c3ccc(C#Cc4ccc(N5C(=S)N(c6ccc(C#N)c(C(F)(F)F)c6)C(=O)C5(C)C)cc4)cn3)CC2)c2ccc(-c3sncc3C)cc2)C(C)C)on1 | 27 | 75 |  |
| Cc1ncsc1-c1ccc([C@H](C)NC(=O)[C@@H]2C[C@@H](O)CN2C(=O)[C@@H](NC(=O)CN2CCN(c3ccc(C#Cc4ccc(N5C(=S)N(c6ccc(C#N)c(C(F)(F)F)c6)C(=O)C5(C)C)cc4)cn3)CC2)C(C)(C)C)cc1 |  | 3 |  |
| CC1(C)[C@H](NC(=O)c2cnn(CCO)c2)C(C)(C)[C@H]1Oc1ccc(C#N)c(Cl)c1 |  |  | IC50 (LNCaP): 0.048 µM; IC50 (VCaP): 0.148 µM; IC50 (CWR22R): > 10 µM |
